# Experimental data as given in ChEMBL document CHEMBL5344478, “Cytochrome bd oxidase: an emerging anti-tubercular drug target” (RSC Med Chem, 2024).
# Experiments:
# [1] = system: Mycobacterium tuberculosis; test: Antibacterial activity against Mycobacterium tuberculosis H37Rv assessed as inhibition of bacterial growth; type: functional
# [2] = system: Mycobacterium tuberculosis; test: Inhibition of wild type Mycobacterium tuberculosis mc2 6020 cytochrome bd oxidase assessed as inhibition of oxygen consumption rate at 10 to 25 uM measured after 5 days by Methylene blue dye based assay; conditions: dose 10-25 µM, time 5.0 day
# [3] = system: Mycobacterium tuberculosis; test: Antitubercular activity against Mycobacterium tuberculosis H37Rv assessed as inhibition of bacterial growth; type: functional
# [4] = system: Mycobacterium tuberculosis; test: Antibacterial activity against Mycobacterium tuberculosis H37Rv cytochrome bd oxidase assessed as reduction in total cellular ATP level; type: functional, organism-based
# [5] = Oral bioavailability in mouse; type: ADME, organism-based; conditions: in vivo
# [6] = Half life in mouse; type: ADME, organism-based; conditions: in vivo
# [7] = system: Mycobacterium tuberculosis; test: Antitubercular activity against XDR Mycobacterium tuberculosis assessed as bacterial growth inhibition; type: functional
# [8] = system: Mycobacterium tuberculosis; test: Antibacterial activity against Mycobacterium tuberculosis clinical isolate N0145 assessed as reduction in bacterial growth; type: functional, organism-based
# [9] = system: Mycobacterium tuberculosis; test: Antibacterial activity against Mycobacterium tuberculosis H37Rv assessed as reduction in bacterial growth; type: functional, organism-based
# [10] = system: Mycobacterium tuberculosis; test: Antibacterial activity against Mycobacterium tuberculosis H37Rv mc2 6206 assessed as inhibition of bacterial growth by resazurin dye based assay; type: functional
# [11] = system: Mycobacterium tuberculosis; test: Antimycobacterial activity against Mycobacterium tuberculosis Rv0678; type: functional
# [12] = system: Mycobacterium tuberculosis; test: Antibacterial activity against Mycobacterium tuberculosis H37Rv assessed as reduction in bacterial growth incubated for 7 days by broth dilution method; type: functional; conditions: 168 h, time 7 day
# [13] = system: Mycobacterium tuberculosis; test: Antibacterial activity against Mycobacterium tuberculosis clinical isolate N0145 assessed as reduction in ATP level; type: functional, organism-based
smiles,measurement,setting,value
CC(C)=CCC/C(C)=C/CC/C(C)=C/Cc1c(C)[nH]c2ccccc2c1=O [AURACHIN D],MIC,[1],> 100 µg/mL
same,inhibition,[2],60%
same,MIC,[3],> 100 µg/mL
FC(F)(F)c1ccc(Oc2ccc(Nc3ncnc4ccccc34)cc2)cc1,IC50,[4],2.8 µM
same,bioavailability,[5],58%
same,half-life,[6],64 h
same,MIC,[7],≤ 1 µM
CC(C)(C)c1ccc(CCNc2ncnc3ccsc23)cc1,IC50,[8],8.5 µM
same,IC50,[9],5.8 µM
NC(=O)NC(=O)c1nc(-c2cc3ccccc3o2)c(N)nc1N,MIC,[10],9 µM
same,MIC,[11],12 µM
same,MIC,[12],4 µM
CCc1nc2ccc(Cl)cn2c1C(=O)NCc1ccc(N2CCC(c3ccc(OC(F)(F)F)cc3)CC2)cc1 [TELACEBEC],IC50,[13],0.1 µM
same,inhibition,[2],60%
same,MIC,[3],0.0015 µM
CC(C)(C)c1ccc(CCNc2ncnc3ccccc23)cc1,IC50,[8],0.1 µM
same,IC50,[9],5.8 µM
Fc1ccc2c(NCCc3ccc(OC(F)(F)F)cc3)ncnc2c1,IC50,[8],0.2 µM
same,IC50,[9],7.6 µM
